Data set [1] relates to C. albicans ATCC MYA-573. Nature of the data set: Antifungal activity (GI80), growth inhibition in YPD20 medium by absorbance at 600 nm. Type of data set: cell-based. The following applies: Candida albicans, minimum concentration for at least 80% cell growth inhibition, 37° C., absorbance 600 nm, read-out: GI80 (μg/ml) C. albicans ATCC MYA-573. The protocol:
(§1) The antifungal activity of the compounds of the invention was determined according to the method mentioned below.
(§2) An YPD20 medium (1% yeast extract, 2% peptone, 20% glucose) was used,
(§3) (2) Preparation of Cell Liquid for Inoculation:
(§4) Cells incubated overnight with Sabouraud dextrose agar at 30° C. were suspended in 0.1% Tween 80-added saline, and then added to a concentrated medium (1.33% yeast extract, 2.67% peptone, 13.33% glucose) so that the final cell concentration could be 5×10^3 cells/ml, thereby preparing a cell liquid for inoculation.
(§5) (3) Production of Chemical Dilution Plate:
(§6) A metered sample was dissolved in dimethyl sulfoxide, and a 2-fold dilution series was prepared using dimethyl sulfoxide. A chemical dilution of 2 μl each was added to a flat-bottom 96-well plate with 40% glucose (48 μl) put in each well, thereby producing a chemical dilution plate.
(§7) (4) Inoculation and Cultivation of Cell Liquid:
(§8) The cell liquid (150 μl) prepared in (2) was added to the chemical dilution plate produced in (3), followed by aerobic static cultivation at 37° C.
(§9) (5) Determination of Antifungal Activity (GI80 Value):
(§10) After cultivation for […], the plate was stirred, and its absorbance (600 nm) was measured. Based on the absorbance as the index, the minimum chemical concentration for at least 80% cell growth inhibition relative to the cell growth in the chemical-free well was computed as a GI80 value.

In data set [2] the test system is C. albicans ATCC90028. The data set is described as above. It counts as cell-based. The conditions noted are these: Candida albicans, ATCC90028, minimum concentration for at least 80% cell growth inhibition, 37° C., absorbance 600 nm, read-out: GI80 (μg/ml) C. albicans ATCC90028. The method, then:
as §1, §2, §3, §4, §5, §6, §7, §8, §9, §10

For data set [3], the system named is C. glabrata ATCC48435. The description is as above. The conditions noted are these: Nakaseomyces glabratus, ATCC48435, minimum concentration for at least 80% cell growth inhibition, 37° C., absorbance 600 nm, read-out: GI80 (μg/ml) C. glabrata ATCC48435. Type of data set: cell-based. The protocol: as §1, §2, §3, §4, §5, §6, §7, §8, §9, §10

Among the data in US7737166B2, “Antifungal bicyclic hetero ring compounds” (Daiichi Sankyo Company, Limited, priority 2005, dated 2010) are IC80 and melting point values, retold here.

SMILES strings stand for the structures. ≈ marks a conversion by molar mass, not a printed value.

In the case of `Cc1c(-c2ccccc2)c(N2CC[C@H](N(C)C)C2)c2oc(C(C)(C)C)nc2c1C#N.Cl` [Example 1, 2-tert-Butyl-7-[(3S)-3-(dimethylamino)pyrrolidin-1-yl]-5-methyl-6-phenyl-1,3-benzoxazole-4-carbonitrile hydrochloride], the melting point (in general, the temperature, or range, at which the solid turns liquid) is 198 to 201 °C (dec.). Besides, the IC80 in data set [1] was 0.063 µg/mL. Moreover, the IC80 in data set [2] was 0.063 µg/mL. Also, the IC80 in data set [3] came out at 0.032 µg/mL.
`CN[C@H]1CCN(c2c(-c3ccccc3)c(C)c(C#N)c3nc(C(C)(C)C)oc23)C1.Cl` [Example 2, 2-tert-Butyl-5-methyl-7-[(3S)-3-(methylamino)pyrrolidin-1-yl]-6-phenyl-1,3-benzoxazole-4-carbonitrile hydrochloride]: the melting point is 237 to 240 °C (dec.). In addition, the IC80 in data set [1] was 0.25 µg/mL. For the same compound, the IC80 in data set [2] came out at 0.5 µg/mL. Further, the IC80 in data set [3] came out at 0.125 µg/mL.
On the same counts, the results for `Cc1c(-c2ccccc2)c(N2CCC(N(C)C)C2)c2oc(C(C)(C)CO)nc2c1C#N` (stereo not shown) [Example 14, 7-[3-(Dimethylamino)pyrrolidin-1-yl]-2-(2-hydroxy-1,1-dimethylethyl)-5-methyl-6-phenyl-1,3-benzoxazole-4-carbonitrile] are 175 to 178 °C, 0.25 µg/mL (≈ 0.597 µM), 0.25 µg/mL (≈ 0.597 µM) and 0.125 µg/mL (≈ 0.299 µM).
The compound `Cc1c(-c2cccn2C)c(N2CC[C@H](N(C)C)C2)c2oc(C3CC3)nc2c1C#N` [Example 22, 2-Cyclopropyl-7-[(3S)-3-(dimethylamino)pyrrolidin-1-yl]-5-methyl-6-(1-methyl-1H-pyrrol-2-yl)-1,3-benzoxazole-4-carbonitrile] displayed a melting point of 127 to 128 °C. In addition, the IC80 in data set [1] stood at 1 µg/mL (≈ 2.57 µM). Also, the IC80 in data set [2] came to 0.5 µg/mL (≈ 1.28 µM). The IC80 in data set [3] stood at 0.5 µg/mL (≈ 1.28 µM).
`Cc1nc(-c2c(C)c(C#N)c3nc(C4CC4)oc3c2N2CC[C@H](N(C)C)C2)cs1` [Example 23, 2-Cyclopropyl-7-[(3S)-3-(dimethylamino)pyrrolidin-1-yl]-5-methyl-6-(2-methyl-1,3-thiazol-4-yl)-1,3-benzoxazole-4-carbonitrile] registered a melting point of 167 to 168 °C. In addition, the IC80 in data set [1] was 1 µg/mL (≈ 2.45 µM). In addition, the IC80 in data set [2] was 1 µg/mL (≈ 2.45 µM). In addition, the IC80 in data set [3] was found to be 0.5 µg/mL (≈ 1.23 µM).
`Cc1c(-c2ccccc2)c(N2CC[C@H](N(C)C)C2)c2oc(-c3ccccn3)nc2c1C#N` [Example 35, 7-[(3S)-3-(Dimethylamino)pyrrolidin-1-yl]-5-methyl-6-phenyl-2-(pyridin-2-yl)-1,3-benzoxazole-4-carbonitrile] gave a melting point of 227 to 233 °C. The IC80 in data set [1] was determined as 0.25 µg/mL (≈ 0.59 µM). In addition, in data set [2], the IC80 was 0.25 µg/mL (≈ 0.59 µM). The IC80 in data set [3] is 0.032 µg/mL (≈ 0.0756 µM).
`Cc1c(-c2ccccc2)c(N2CC[C@H](N(C)C)C2)c2oc(C(=O)N(C)C)nc2c1C#N` [Example 40, 4-Cyano-7-[(3S)-3-(dimethylamino)pyrrolidin-1-yl]-N,N,5-trimethyl-6-phenyl-1,3-benzoxazole-2-carboxamide]: the melting point is 139 to 142 °C. Further, the IC80 in data set [1] was 0.063 µg/mL (≈ 0.151 µM). In addition, the IC80 in data set [2] is 0.063 µg/mL (≈ 0.151 µM). In data set [3], the IC80 is 0.016 µg/mL (≈ 0.0383 µM).
Compound `CN[C@H]1CCN(c2c(-c3ccccc3)c(C)c(C#N)c3nc(C(=O)N(C)C)oc23)C1` [Example 40-1, 4-Cyano-N,N,5-trimethyl-7-[(3S)-3-(methylamino)pyrrolidin-1-yl]-6-phenyl-1,3-benzoxazole-2-carboxamide] displayed a melting point of 148 to 151 °C. For the same compound, the IC80 in data set [1] amounted to 0.25 µg/mL (≈ 0.62 µM). The IC80 in data set [2] worked out at 0.25 µg/mL (≈ 0.62 µM). The IC80 in data set [3] was 0.032 µg/mL (≈ 0.0793 µM).
Compound `Cc1c(-c2ccccc2)c(N2CC[C@H](N(C)C)C2)c2oc(N3CC(O)C3)nc2c1C#N` [Example 65, 7-[(3S)-3-(Dimethylamino)pyrrolidin-1-yl]-2-(3-hydroxyazetidin-1-yl)-5-methyl-6-phenyl-1,3-benzoxazole-4-carbonitrile] came in with a melting point of 219 to 221 °C.
As to `Cc1c(-c2ccccc2)c(N2CC[C@H](N(C)C)C2)c2oc(-c3cnn(C)c3)nc2c1C#N` [Example 74, 7-[(3S)-3-(Dimethylamino)pyrrolidin-1-yl]-5-methyl-2-(1-methyl-1H-pyrazol-4-yl)-6-phenyl-1,3-benzoxazole-4-carbonitrile], the melting point lay in the range of 214 to 222 °C.
Still for that read-out and setting: the figure for `Cc1c(-c2ccccc2)c(N2CC[C@H](N(C)C)C2)c2oc(N3CC(C)(O)C3)nc2c1C#N` [Example 99, 7-[(3S)-3-(Dimethylamino)-1-pyrrolidinyl]-2-(3-hydroxy-3-methylazetidin-1-yl)-5-methyl-6-phenyl-1,3-benzoxazole-4-carbonitrile] is 167 to 169 °C; for `Cc1c(-c2ccccc2)c(N2CC[C@H](N(C)C)C2)c2oc(-c3ccccc3N)nc2c1C#N` [Example 109, 2-(2-Aminophenyl)7-[(3S)-3-(dimethylamino)pyrrolidin-1-yl]-5-methyl-6-phenyl-1,3-benzoxazole-4-carbonitrile] it is 259 to 263 °C; for `Cc1c(-c2ccccc2)c(N2CC[C@H](N(C)C)C2)c2oc(-c3ccccc3O)nc2c1C#N` [Example 110, 7-[(3S)-3-(Dimethylamino)pyrrolidin-1-yl]-2-(2-hydroxyphenyl)-5-methyl-6-phenyl-1,3-benzoxazole-4-carbonitrile] it is 159 to 162 °C.
Same read-out and setting: the result for `Cc1c(-c2ccccc2)c(N2CC[C@H](N(C)C)C2)c2oc(N3CCOCC3)nc2c1C#N` [Example 130, 7-[(3S)-3-(Dimethylamino)pyrrolidin-1-yl]-5-methyl-2-morpholin-4-yl-6-phenyl-1,3-benzoxazole-4-carbonitrile] reads 215 to 217 °C; that for `CCN[C@H]1CCN(c2c(-c3ccccc3)c(C)c(C#N)c3nc(C4CC4)oc23)C1` [Example 138, 2-Cyclopropyl-7-[(3S)-3-(ethylamino)pyrrolidin-1-yl]-5-methyl-6-phenyl-1,3-benzoxazole-4-carbonitrile], 209 to 211 °C; that for `Cc1c(-c2cccc(CF)c2)c(N2CC[C@H](N(C)C)C2)c2oc(C3CC3)nc2c1C#N` [Example 144-10, 2-Cyclopropyl-7-[(3S)-3-(dimethylamino)pyrrolidin-1-yl]-6-[3-(fluoromethyl)phenyl]-5-methyl-1,3-benzoxazole-4-carbonitrile], 104 to 107 °C.
Still for that read-out and setting: the figure for `Cc1c(-c2ccccc2)c(C2=CCNC2)c2oc(C3CC3)nc2c1C#N` [Example 153, 2-Cyclopropyl-7-(2,5-dihydro-1H-pyrrol-3-yl)-5-methyl-6-phenyl-1,3-benzoxazole-4-carbonitrile] is 172 to 174 °C; for `CN[C@@]1(C)CCN(c2c(-c3cccc(F)c3)c(C)c(C#N)c3nc(C(=O)N(C)C)oc23)C1` [Example 157, 4-Cyano-6-(3-fluorophenyl)-N,N,5-trimethyl-7-[(3S)-3-methyl-3-(methylamino)pyrrolidin-1-yl]-1,3-benzoxazole-2-carboxamide] it is 178 to 180 °C; for `Cc1c(-c2ccccc2)c(N2CC[C@](C)(N)C2)c2oc(C(=O)N(C)C)nc2c1C#N` [Example 160, 7-[(3S)-3-Amino-3-methylpyrrolidin-1-yl]-4-cyano-N,N,5-trimethyl-6-phenyl-1,3-benzoxazole-2-carboxamide] it is 202 to 204 °C.
